From ChEMBL document CHEMBL1159351, “New briaranes from the Taiwanese gorgonian Junceella juncea” (J Nat Prod, 2003)
≈ marks a conversion by molar mass, not a printed value. Calls of active or inactive are those of the source. The rule behind the calls is not given here.

Assays:
Format in all cases: functional, cell-based
[1] = (§1) Cytotoxicity against human HEPA 59T/VGH cells by methylene blue dye assay
[2] = (§2) Cytotoxicity against human KB16 cells by methylene blue dye assay
HEPA 59T/VGH = test: as §1
KB16 = test: as §2

**Q.** With CC(=O)O[C@H]1[C@@H](OC(C)=O)[C@]2(CO2)[C@H]2[C@](C)([C@H]1OC(C)=O)[C@]1(OC(C)=O)/C=C\C(CO)=C/[C@@H]3OC(=O)[C@H](C)[C@@]3(O)[C@]21OC(C)=O [JUNCENOLIDE C] as the compound, how does the IC50 [1] read?
**A.** The IC50 was 6.6 µg/mL (≈ 10.4 µM).

**Q.** What about the IC50 [2] of the same compound?
**A.** The IC50 was 7.8 µg/mL (≈ 12.3 µM).

**Q.** What does the source list for CC(=O)O[C@H]1C[C@]2(CO2)[C@H]2[C@](C)([C@H]1OC(C)=O)[C@]1(OC(C)=O)/C=C\C(CO)=C/[C@@H]3OC(=O)[C@H](C)[C@@]3(O)[C@]21OC(C)=O?
**A.** Activity (HEPA 59T/VGH): inactive; Activity (KB16): inactive

**Q.** Which results are given for C=C1/C=C/[C@H](OC(C)=O)[C@@]2(C)[C@@H](OC(C)=O)CC[C@]3(CO3)[C@@H]2[C@H](OC(C)=O)[C@]2(O)[C@@H](C)C(=O)O[C@H]2[C@H]1Cl?
**A.** Activity (HEPA 59T/VGH): inactive; Activity (KB16): inactive

**Q.** For COCC1=C/[C@@H]2OC(=O)[C@H](C)[C@@]2(O)[C@]2(OC(C)=O)[C@H]3[C@@]4(CO4)[C@H](OC(C)=O)[C@H](OC(C)=O)[C@H](OC(C)=O)[C@]3(C)[C@]2(OC(C)=O)/C=C\1, which Activity (HEPA 59T/VGH) is on record?
**A.** The Activity was “inactive”.

**Q.** What about the Activity (KB16) of the same compound?
**A.** The Activity was “inactive”.
